Laboratory results from US9006242B2, “Substituted benzene compounds” (Epizyme, Inc., priority 2012, dated 2015).
Where two headings read alike, the source gives them in different places.

How the values were obtained:
[1] = Metabolic stability in mouse liver microsomes; settings: pH 7.4
[2] = format: in vivo; settings: oral, BID, up to 28 days, Karpas-422 xenograft mice
CYP3A = assay: CYP induction in cryopreserved human hepatocytes (mRNA), CYP3A; format: in vitro ADME; settings: positive control rifampicin
CYP3A4/5 [3] = assay: Time-dependent inactivation (TDI) of CYP3A4/5 in human liver microsomes; format: in vitro ADME; settings: for inactivation of CYP3A4/5 (in words): using midazolam as probe
[4] = tested on: human cytochromes P450 (CYP); assay: Reversible CYP inhibition in human liver microsomes, overall assessment
[5] = tested on: cryopreserved human hepatocytes; assay: Fraction of hepatocytes remaining (DAPI cell count) in CYP induction study; format: cell-based; settings: 48 hours
Protocol: After completion of the incubation, the cells were washed with DPBS. After washing with DPBS, the cells were fixed using 3.7% p-formaldehyde in DPBS for one hour. The formaldehyde was removed and 0.6 μmol/L DAPI in DPBS was added. The cells were stained by DAPI for 20 minutes and then washed three times with DPBS. Cells were counted using an ArrayScan II (Cellomics, Pittsburgh, Pa.) with a 5× objective lens. Fraction of hepatocytes remaining was calculated using the number of cells found at a treatment condition divided by cells found with the vehicle control.

[6] = Metabolic stability in dog liver microsomes; settings: pH 7.4
CYP1A [7] = assay: CYP induction in cryopreserved human hepatocytes (mRNA), CYP1A; format: in vitro ADME; settings: positive control β-naphthoflavone
[8] = Metabolic stability in rat liver microsomes; settings: pH 7.4
[9] = Metabolic stability in monkey liver microsomes; settings: cynomolgus monkey, pH 7.4
CYP2C9 [10] = assay: CYP induction in cryopreserved human hepatocytes (mRNA), CYP2C9; format: in vitro ADME; settings: positive control rifampicin
Karpas-422 xenograft = assay: Efficacy study in Karpas-422 xenograft model; format: in vivo, mice
[11] = Metabolic stability in human liver microsomes; settings: for metabolic clearance in human liver microsomes (in words): HLM; for CLint scaled: human, human liver microsomes, pH 7.4
CYP2C8 = CYP2C8 (Homo sapiens (Human), UniProt P10632); assay: Reversible CYP inhibition in pooled human liver microsomes, CYP2C8; settings: read-out: Reversible inhibition IC50 CYP2C8
CYP1A [12] = assay: in vitro; settings: human, pooled human liver microsomes, pH 7.4
CYP2C19 = CYP2C19 (Homo sapiens (Human), UniProt P33261); settings: read-out: Reversible inhibition IC50 CYP2C19; human liver microsomes
CYP2C9 [13] = assay: in vitro; settings: human, pooled human liver microsomes, pH 7.4
CYP3A4/5 [14] = assay: in vitro; settings: human, pooled human liver microsomes
CYP2B6 = assay: CYP induction in cryopreserved human hepatocytes (mRNA), CYP2B6; format: in vitro ADME; settings: positive control phenobarbital
CYP2D6 = CYP2D6 (Homo sapiens (Human), UniProt P10635); assay: Reversible CYP inhibition in pooled human liver microsomes, CYP2D6; settings: read-out: Reversible inhibition IC50 CYP2D6
EZH2 (PRC2 complex) = EZH2 (PRC2 complex) (Homo sapiens (Human), UniProt Q15910); assay: PRC2 enzyme assay on peptide substrate (EZH2 peptide v2)
[15] = molecular target: wild-type EZH2 (PRC2 complex) (Homo sapiens (Human), UniProt Q15910); assay: Wild-type PRC2 enzyme assay (WT EZH2)
[16] = pH 7.4, probe testosterone (250 μmol/L), CYP3A4/5, human liver microsomes, read-out: Time-Dependent Inactivation KI

Sequence of CYP2C19 (P33261 whole entry): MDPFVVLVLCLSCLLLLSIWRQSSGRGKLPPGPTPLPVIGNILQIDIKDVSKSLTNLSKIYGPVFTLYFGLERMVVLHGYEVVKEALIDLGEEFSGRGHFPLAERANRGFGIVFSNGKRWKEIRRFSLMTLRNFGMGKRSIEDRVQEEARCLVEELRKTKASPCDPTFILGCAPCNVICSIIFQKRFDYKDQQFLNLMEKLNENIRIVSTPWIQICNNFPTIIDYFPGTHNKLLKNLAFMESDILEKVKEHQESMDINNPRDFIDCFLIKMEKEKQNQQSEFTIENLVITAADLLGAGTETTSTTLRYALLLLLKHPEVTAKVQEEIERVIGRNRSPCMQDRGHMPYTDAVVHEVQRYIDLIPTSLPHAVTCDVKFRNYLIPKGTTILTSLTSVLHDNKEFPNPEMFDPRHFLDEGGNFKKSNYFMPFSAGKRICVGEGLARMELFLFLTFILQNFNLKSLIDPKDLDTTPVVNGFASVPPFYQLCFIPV
Sequence of CYP2D6 (P10635 whole entry): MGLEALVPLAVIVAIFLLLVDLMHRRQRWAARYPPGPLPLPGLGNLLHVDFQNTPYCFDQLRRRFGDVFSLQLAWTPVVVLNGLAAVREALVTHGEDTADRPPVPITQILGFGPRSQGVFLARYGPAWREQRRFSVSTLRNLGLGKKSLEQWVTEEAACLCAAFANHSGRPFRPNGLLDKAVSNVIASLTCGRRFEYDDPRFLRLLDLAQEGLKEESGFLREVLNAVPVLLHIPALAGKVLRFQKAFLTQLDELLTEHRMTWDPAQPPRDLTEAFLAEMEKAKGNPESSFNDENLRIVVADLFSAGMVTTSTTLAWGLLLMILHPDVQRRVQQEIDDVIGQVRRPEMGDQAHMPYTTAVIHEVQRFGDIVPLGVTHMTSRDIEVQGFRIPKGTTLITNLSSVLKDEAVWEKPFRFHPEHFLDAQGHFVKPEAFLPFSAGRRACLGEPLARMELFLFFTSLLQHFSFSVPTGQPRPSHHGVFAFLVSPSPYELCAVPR
Sequence of CYP2C8 (P10632 whole entry): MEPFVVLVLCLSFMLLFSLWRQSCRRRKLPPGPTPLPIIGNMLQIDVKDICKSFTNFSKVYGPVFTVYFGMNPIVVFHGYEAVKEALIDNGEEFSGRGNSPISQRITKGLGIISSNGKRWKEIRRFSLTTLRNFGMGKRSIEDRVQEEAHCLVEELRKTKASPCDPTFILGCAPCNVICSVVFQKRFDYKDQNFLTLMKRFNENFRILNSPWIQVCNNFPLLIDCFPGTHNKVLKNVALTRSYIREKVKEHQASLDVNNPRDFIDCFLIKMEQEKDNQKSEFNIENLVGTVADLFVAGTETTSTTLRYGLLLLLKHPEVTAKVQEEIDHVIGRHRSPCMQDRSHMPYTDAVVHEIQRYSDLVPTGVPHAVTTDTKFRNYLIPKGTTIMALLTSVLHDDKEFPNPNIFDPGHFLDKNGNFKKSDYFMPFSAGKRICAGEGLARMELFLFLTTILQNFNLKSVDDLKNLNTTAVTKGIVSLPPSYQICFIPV
Sequence of wild-type EZH2 (PRC2 complex) (Q15910 other isoform, or with tags, fused parts or gaps): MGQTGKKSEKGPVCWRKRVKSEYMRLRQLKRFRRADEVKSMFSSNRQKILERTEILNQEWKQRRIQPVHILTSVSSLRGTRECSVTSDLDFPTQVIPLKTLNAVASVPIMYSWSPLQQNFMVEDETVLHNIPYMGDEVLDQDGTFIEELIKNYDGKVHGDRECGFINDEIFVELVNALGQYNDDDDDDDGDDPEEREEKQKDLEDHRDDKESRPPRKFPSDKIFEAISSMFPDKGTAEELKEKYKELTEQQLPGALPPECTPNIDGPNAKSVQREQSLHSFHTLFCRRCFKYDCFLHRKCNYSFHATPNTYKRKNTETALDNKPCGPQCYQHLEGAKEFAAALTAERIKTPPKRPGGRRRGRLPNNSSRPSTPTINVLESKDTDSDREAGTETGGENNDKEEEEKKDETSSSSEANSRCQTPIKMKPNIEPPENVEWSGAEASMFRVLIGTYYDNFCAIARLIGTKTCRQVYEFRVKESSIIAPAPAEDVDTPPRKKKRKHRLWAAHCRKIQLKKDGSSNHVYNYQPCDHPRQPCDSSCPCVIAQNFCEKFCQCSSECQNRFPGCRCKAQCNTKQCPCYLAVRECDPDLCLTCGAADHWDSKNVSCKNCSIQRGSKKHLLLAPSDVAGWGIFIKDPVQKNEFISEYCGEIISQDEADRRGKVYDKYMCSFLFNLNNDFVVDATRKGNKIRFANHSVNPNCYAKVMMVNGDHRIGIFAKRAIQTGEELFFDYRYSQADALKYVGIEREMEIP
Sequence of wild-type EZH2 (PRC2 complex) (O75530 whole entry partner): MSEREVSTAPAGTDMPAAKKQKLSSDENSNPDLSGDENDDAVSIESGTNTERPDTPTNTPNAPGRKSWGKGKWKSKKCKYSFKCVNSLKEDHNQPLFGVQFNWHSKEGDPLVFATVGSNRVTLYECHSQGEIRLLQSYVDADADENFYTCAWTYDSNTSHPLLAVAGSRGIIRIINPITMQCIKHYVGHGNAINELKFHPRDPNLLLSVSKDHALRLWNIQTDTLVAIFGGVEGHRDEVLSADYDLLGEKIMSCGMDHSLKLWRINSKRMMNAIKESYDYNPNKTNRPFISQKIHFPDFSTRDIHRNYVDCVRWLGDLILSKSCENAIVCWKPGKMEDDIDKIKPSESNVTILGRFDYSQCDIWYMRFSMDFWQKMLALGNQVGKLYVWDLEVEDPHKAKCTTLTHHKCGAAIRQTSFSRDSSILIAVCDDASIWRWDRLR
Sequence of wild-type EZH2 (PRC2 complex) (Q15022 whole entry partner): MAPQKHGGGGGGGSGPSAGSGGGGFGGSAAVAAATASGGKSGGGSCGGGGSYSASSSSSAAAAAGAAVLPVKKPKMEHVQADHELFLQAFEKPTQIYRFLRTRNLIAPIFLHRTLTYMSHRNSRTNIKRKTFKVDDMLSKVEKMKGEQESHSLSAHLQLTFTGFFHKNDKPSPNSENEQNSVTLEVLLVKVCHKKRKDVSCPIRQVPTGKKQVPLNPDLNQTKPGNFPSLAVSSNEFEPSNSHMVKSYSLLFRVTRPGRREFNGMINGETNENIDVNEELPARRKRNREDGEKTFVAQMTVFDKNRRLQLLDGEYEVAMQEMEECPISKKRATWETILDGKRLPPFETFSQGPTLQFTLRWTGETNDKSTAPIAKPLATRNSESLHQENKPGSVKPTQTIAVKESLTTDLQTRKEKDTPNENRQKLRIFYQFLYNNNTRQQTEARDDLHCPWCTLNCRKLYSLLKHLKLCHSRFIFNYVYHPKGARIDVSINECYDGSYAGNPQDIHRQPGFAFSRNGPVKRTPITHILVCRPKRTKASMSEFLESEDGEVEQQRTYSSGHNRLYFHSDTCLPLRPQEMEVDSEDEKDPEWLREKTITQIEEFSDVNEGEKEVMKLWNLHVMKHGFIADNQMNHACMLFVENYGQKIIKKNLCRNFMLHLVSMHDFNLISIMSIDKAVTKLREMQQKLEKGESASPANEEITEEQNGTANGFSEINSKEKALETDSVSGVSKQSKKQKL
Sequence of wild-type EZH2 (PRC2 complex) (Q09028 whole entry partner): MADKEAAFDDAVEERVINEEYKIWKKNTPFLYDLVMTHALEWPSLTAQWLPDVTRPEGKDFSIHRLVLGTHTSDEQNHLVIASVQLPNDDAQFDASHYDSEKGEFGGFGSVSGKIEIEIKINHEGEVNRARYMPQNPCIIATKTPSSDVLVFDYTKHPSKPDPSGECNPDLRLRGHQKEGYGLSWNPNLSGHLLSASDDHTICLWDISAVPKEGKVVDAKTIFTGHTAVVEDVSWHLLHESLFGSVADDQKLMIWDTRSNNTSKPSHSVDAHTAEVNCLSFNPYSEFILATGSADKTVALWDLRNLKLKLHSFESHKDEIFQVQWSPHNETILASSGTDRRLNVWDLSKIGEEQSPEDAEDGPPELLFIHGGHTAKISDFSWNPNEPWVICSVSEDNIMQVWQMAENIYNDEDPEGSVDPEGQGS
Sequence of EZH2 (PRC2 complex) (Q15910 other isoform, or with tags, fused parts or gaps): as the sequence (Q15910 other isoform, or with tags, fused parts or gaps) above
Sequence of EZH2 (PRC2 complex) (O75530 whole entry partner): as the sequence (O75530 whole entry partner) above
Sequence of EZH2 (PRC2 complex) (Q15022 whole entry partner): as the sequence (Q15022 whole entry partner) above
Sequence of EZH2 (PRC2 complex) (Q09028 whole entry partner): as the sequence (Q09028 whole entry partner) above

With `CCN(c1cc(-c2ccc(OCCOC)cc2)cc(C(=O)NCc2c(C)cc(C)[nH]c2=O)c1C)[C@H]1CC[C@H](N(C)C)CC1` [Compound 1, N-((4,6-dimethyl-2-oxo-1,2-dihydropyridin-3-yl)methyl)-5-(((trans)-4-(dimethylamino)-cyclohexyl)(ethyl)-amino)-4′-(2-methoxyethoxy)-4-methyl-[1,1′-biphenyl]-3-carboxamide] the CLint scaled [1] was 15.4 mL/min/kg, the “tolerability (in words)” value [2] was “well tolerated” and the “CYP3A % Positive Control” value (CYP3A; 1 μM) was 13.9%. The “CYP3A % Positive Control” value (CYP3A; 10 μM) was 13.3%, the KI (inactivation) (CYP3A4/5 [3]; human, human liver microsomes, pH 7.4, CYP3A4/5, footnote to ** not given, read-out: Time-Dependent Inactivation KI, second value in brackets marked **) was 3.3 µM and the KI (inactivation) (CYP3A4/5 [3]; [16]) was 6.4 µM. The “inactivation of CYP3A4/5 (in words)” value (CYP3A4/5 [3]) was “time-, concentration-, and NADPH-dependent inactivation of CYP3A4/5”, the “reversible CYP inhibition (in words)” value [4] was “no significant reversible inhibition” and the “% Cell Remaining vs. Control” value ([5]; 1 μM) was 107.44%. The “% Cell Remaining vs. Control” value ([5]; 10 μM) was 99.00%, the CLint scaled [6] was 8.1 mL/min/kg and the “CYP1A % Positive Control” value (CYP1A [7]; 1 μM) was 2.8%. For the same compound, the “CYP1A % Positive Control” value (CYP1A [7]; 10 μM) was 3.0%, the CLint scaled [8] was 14.8 mL/min/kg and the CLint scaled [9] was 58.6 mL/min/kg. For the same compound, the “CYP2C9 % Positive Control” value (CYP2C9 [10]; 1 μM) was 43.5%, the “CYP2C9 % Positive Control” value (CYP2C9 [10]; 10 μM) was 52.6% and the “tumors large enough for analysis at day 28” value (shortened to “tumors large enough”) (Karpas-422 xenograft; 125 mg/kg BID x28, p.o.) was 5 out of 10. For the same compound, the “tumors large enough” value (Karpas-422 xenograft; 250 mg/kg BID x28, p.o.) was 1 out of 10, the “tumors large enough” value (Karpas-422 xenograft; 500 mg/kg BID x28, p.o.) was “too small for analysis” and the “anti-tumor effect in Karpas-422 xenograft model (in words)” value (Karpas-422 xenograft; oral, BID, up to 28 days, 62.5-500 mg/kg) was “tumor stasis and regression”. The “metabolic clearance in human liver microsomes (in words)” value (shortened to “metabolic clearance”) [11] was “low metabolic clearance”, the CLint scaled [11] was 10.5 mL/min/kg and the IC50 (CYP2C8) was over 100 µM. For the same compound, the IC50 (CYP1A [12]) was over 100 µM, the IC50 (CYP2C19) was 89.6 µM and the IC50 (CYP2C9 [13]) was over 100 µM. For the same compound, the IC50 (CYP3A4/5 [14]; pH 7.4, probe midazolam) was 40.5 µM, the IC50 (CYP3A4/5 [14]; pH 7.4, probe testosterone) was over 100 µM and the “CYP2B6 % Positive Control” value (CYP2B6; 1 μM) was 18.0%. The “CYP2B6 % Positive Control” value (CYP2B6; 10 μM) was 26.3%.
In the case of `CCN(c1cc(C#CCN2CCOCC2)cc(C(=O)NCc2c(C)cc(C)[nH]c2=O)c1C)[C@H]1CC[C@H](N(C)CCOC)CC1` [Compound 2, N-((4,6-dimethyl-2-oxo-1,2-dihydropyridin-3-yl)methyl)-3-(ethyl((trans)-4-((2-methoxyethyl)(methyl)amino)cyclohexyl)amino)-2-methyl-5-(3-morpholinoprop-1-yn-1-yl)benzamide], the CLint scaled [1] is reported as 17.6 mL/min/kg, the KI (inactivation) (CYP3A4/5 [3]; [16]) is reported as 22.3 µM and the “inactivation of CYP3A4/5 (in words)” value (CYP3A4/5 [3]) is reported as “time-, concentration-, and NADPH-dependent inactivation of CYP3A4/5”. The “reversible CYP inhibition (in words)” value [4] was “no significant reversible inhibition”, the “% Cell Remaining vs. Control” value ([5]; 1 μM) was 124.70% and the “% Cell Remaining vs. Control” value ([5]; 10 μM) was 120.90%. It also gave a CLint scaled [6] of 34.3 mL/min/kg, a CLint scaled [8] of 14.8 mL/min/kg and a CLint scaled [9] of 32.8 mL/min/kg. The “metabolic clearance” value [11] was “low metabolic clearance”, the CLint scaled [11] was 8.8 mL/min/kg and the IC50 (CYP2D6) was over 100 µM. It also gave an IC50 (CYP2C8) of over 100 µM, an IC50 (CYP1A [12]) of over 100 µM and an IC50 (CYP2C19) of over 100 µM. For the same compound, the IC50 (CYP2C9 [13]) was over 100 µM, the IC50 (CYP3A4/5 [14]; pH 7.4, probe midazolam) was over 100 µM and the IC50 (CYP3A4/5 [14]; pH 7.4, probe testosterone) was over 100 µM.
With `CCN(c1cc(C#CC2CCN(C)CC2)cc(C(=O)NCc2c(C)cc(C)[nH]c2=O)c1C)C1CCOCC1` [Compound 105, N-((4,6-Dimethyl-2-oxo-1,2-dihydropyridin-3-yl)methyl)-3-(ethyl(tetrahydro-2H-pyran-4-yl)amino)-2-methyl-5-((1-methylpiperidin-4-yl)ethynyl)benzamide] the CLint scaled [1] was 54.7 mL/min/kg, the “CYP3A % Positive Control” value (CYP3A; 1 μM) was 18.1% and the “CYP3A % Positive Control” value (CYP3A; 10 μM) was 33.8%. The KI (inactivation) (CYP3A4/5 [3]; [16]) was 10.2 µM, the “inactivation of CYP3A4/5 (in words)” value (CYP3A4/5 [3]) was “time-, concentration-, and NADPH-dependent inactivation of CYP3A4/5” and the “reversible CYP inhibition (in words)” value [4] was “potentially significant inhibition of CYP2D6 and CYP3A4 (midazolam)”. For the same compound, the “% Cell Remaining vs. Control” value ([5]; 1 μM) was 103.19%, the “% Cell Remaining vs. Control” value ([5]; 10 μM) was 97.49% and the CLint scaled [6] was 64.2 mL/min/kg. The “CYP1A % Positive Control” value (CYP1A [7]; 1 μM) was 3.0%, the “CYP1A % Positive Control” value (CYP1A [7]; 10 μM) was 4.4% and the CLint scaled [8] was 47.5 mL/min/kg. The CLint scaled [9] was 74.8 mL/min/kg, the “CYP2C9 % Positive Control” value (CYP2C9 [10]; 1 μM) was 50.4% and the “CYP2C9 % Positive Control” value (CYP2C9 [10]; 10 μM) was 76.3%. For the same compound, the IC50 (EZH2 (PRC2 complex)) was 0.0084 µM, the “metabolic clearance” value [11] was “low metabolic clearance” and the CLint scaled [11] was 42.1 mL/min/kg. The IC50 (CYP2D6) was 2.95 µM, the IC50 [15] was under 0.01 µM and the IC50 (CYP1A [12]) was over 100 µM. The IC50 (CYP2C19) was 33.6 µM, the IC50 (CYP2C9 [13]) was 75.7 µM and the IC50 (CYP3A4/5 [14]; pH 7.4, probe midazolam) was 9.67 µM. For the same compound, the IC50 (CYP3A4/5 [14]; pH 7.4, probe testosterone) was over 100 µM, the “CYP2B6 % Positive Control” value (CYP2B6; 1 μM) was 25.5% and the “CYP2B6 % Positive Control” value (CYP2B6; 10 μM) was 52.2%.
